According to patent US20140066595A1, “Modulators of Protein Production in a Human Cell Line and Cell-free Extracts Produced Therefrom” (THERMO FISHER SCIENTIFIC BIOSCIENCES INC., priority 2012, published 2014):
“Also recorded” adds a separate entry of the source.

Experiments:
[1] = test system: HeLaS3-Gluc cells; test: Gluc expression of HeLaS3-Gluc cells treated with amiloride, with or without ER stressors; type: cell-based, human
Procedure: (§1) HeLaS3-Gluc cells were plated at 10K/well and incubated overnight. Subsequently, they were pre-treated with amiloride and incubated for 1 hour. Amiloride was used at increasing doses, both alone and in the presence of cellular stressors tunicamycin or thapsigargin. When the ER stressors were included, incubation was for 2 hours, at which time Gluc was measured. The media was then changed, and amiloride and ER stressors were added again. This time incubation was overnight. The media was again changed and the amount of Gluc made was measured after two hours. Amiloride was used in amounts of 0-500 μM. Tunicamycin was used in an amount of 5 μM. Thapsigargin was used in an amount of 2 μM.

[2] = test system: HeLaS3-Gluc cells; test: Viability of HeLaS3-Gluc cells treated with amiloride, with or without ER stressors; type: cell-based, human
Procedure: as §1

[3] = amiloride alone, 0-500 μM, no stress, normalized to no amiloride at 18 hours (FIG. 1)

N=C(N)NC(=O)c1nc(Cl)c(N)nc1N [amiloride, 3,5-diamino-6-chloro-N-(diaminomethylene) pyrazine 2-carboxamide]
Gluc expression (luciferase output) under ER stress ([1]; amiloride 0-500 μM with tunicamycin 5 μM or thapsigargin 2 μM, 18 hours (FIG. 3)): rescued by treatment with an increasing amount of amiloride; also recorded: can restore Gluc expression | Gluc expression (luciferase output) of unstressed cells [1, 3]: did not lead to increased luciferase output | cell viability under ER stress ([2]; amiloride 0-500 μM with tunicamycin 5 μM or thapsigargin 2 μM, normalized to no stress at 18 hours (FIG. 2)): does not have an additional effect on cell viability | viability of unstressed cells [2, 3]: decrease in viability
